Reference: patent US20230257385A1, “SALT AND SOLID FORMS OF TABERNANTHALOG” (priority 2021, published 2023)

Assays:
Format in all cases: physicochemical
[1] = Heat-up/cool down (HUCD) crystallization of the monofumarate salt (Experiment Reference 11); details: for XRPD (oven dried): form of product from HUCD crystallization of tabernanthalog fumarate Sample Reference 1 (Pattern #1), solvents per sample as in E1; for Observations (t = 0 @ T = 20° C.): input tabernanthalog fumarate Sample Reference 1 (Pattern #1), Solvent A/B: 11-A acetone/water, 11-B acetonitrile/water, 11-C butanol/water, 11-D tBME/methanol, 11-E DCM/methanol, 11-F ethanol/water, 11-G methyl acetate/water/methanol, 11-H 2-propanol/water, 11-1 methanol, 11-J MEK/water, 11-K 2-MeTHF/methanol, 11-L THF/water, 11-M toluene/methanol, 11-N water, 11-O dioxane/water, 11-P CPME/methan
Method: Separate portions of the tabernanthalog monofumarate salt (Pattern #1, Sample Reference 1, ca 75 mg, 1.0 wt.) were charged to separate vessels. The appropriate solvents (750 μl, 10.0 vol, refer to Table 106) were charged to the relevant vessels and subsequent charges of the appropriate co-solvent were made to accomplish dissolution at reflux. The solutions were cooled to 18 to 23° C. and allowed to stand undisturbed, until crystallization was judged complete. After this time the products were isolated by centrifugation, washed with recycled maturation solvent, dried under reduced pressure at 40° C. and analyzed by XRPD for evidence of alternative crystalline forms.

[2] = Examination of variability of fusion temperature of sorbate Form A (DSC)
Method: The factors that were assessed to explain the observed variability in fusion temperature found amongst Form A samples were sample loading, preferred orientation and particle size/homogeneity (Table 271). A weak relationship between sample loading and melt onset was observed, the remainder of the factors examined, appeared to be unrelated.
DSC data were collected from 25 to 220C at a scan rate of at 10° C. min^−1 (Table 292).

[3] = Targeted solubility of Tabernanthalog (native) in common solvents (Example 8, Experiment 1)
Method: The solutions were observed after cooling to determine if crystallization occurred on standing at room temperature.
To portions of tabernanthalog (native) (50 mg, 1 wt), were added 5 vol aliquots of the relevant solvent (Table 198). Observations were made at 20° C., 40° C. and reflux and the mixtures were cooled to 20° C. Contingent upon these findings, an additional 5 vol aliquot of the relevant solvent was added and the process was repeated until 20 vol of solvent was added in total.

[4] = Heat-up/cool-down crystallisation screen of sorbate salt (Example 10, Experiments 5, 8); details: Experiment 5; for Observations (t = 1 @ T = 20° C.): Tabernanthalog sorbate salt (Form A) crystallised from binary solvents, solvent A 3.0 vol plus solvent B, one pair per sample; for XRPD (oven dried @ 40° C., 20 h) / XRPD (centrifuged, wet): heat-up/cool-down crystallisation from binary solvents; for XRPD (centrifuged, wet): wet pellet
Method: The relevant solvent (0.225 ml, 3.0 vol) was added to the appropriate vial and the suspensions were stirred and warmed to temperature. If dissolution was not observed, further solvent was added until the solute dissolved, or aliquots of a secondary co-solvent were added to complete dissolution. Once dissolved, the solutions were left to cool down and stand undisturbed under sub-ambient conditions for several days. After crystallisation was judged complete, the products were isolated by centrifugation and the pellets were dried at 40° C. under reduced pressure. Products from the crystallisation (wet and dry) were initially analysed by XRPD (9-minute method), further analyses of certain products were performed by ^1H NMR, DSC and TGA, if the diffraction pattern indicated differences.

[5] = DVS 0 to 90 to 0% RH (mass equilibrated); details: batch 8-A4
[6] = DSC 25-220° C. at 10° C. min^−1, batches of sorbate salt Form A
[7] = DSC 25 to 220C at 10° C. min−1, tabernanthalog sorbate Form A samples
[8] = DSC melt endset, 25 to 220C at 10° C. min−1, tabernanthalog sorbate Form A samples
[9] = DSC melt peak, 25 to 220C at 10° C. min−1, tabernanthalog sorbate Form A samples

COc1ccc2c3c([nH]c2c1)CCN(C)CC3.O=C(O)/C=C/C(=O)O [Sample 11-K]
XRPD (oven dried) [1]: Pattern #5
Observations (t = 0 @ T = 20° C.) [1]: suspension

COc1ccc2c3c([nH]c2c1)CCN(C)CC3.O=C(O)/C=C/C(=O)O [Sample 11-B]
XRPD (oven dried) [1]: Pattern #6a
Observations (t = 0 @ T = 20° C.) [1]: cloudy

COc1ccc2c3c([nH]c2c1)CCN(C)CC3.O=C(O)/C=C/C(=O)O [Sample 11-H]
XRPD (oven dried) [1]: Pattern #6a
Observations (t = 0 @ T = 20° C.) [1]: cloudy

COc1ccc2c3c([nH]c2c1)CCN(C)CC3.O=C(O)/C=C/C(=O)O [Sample 11-J]
XRPD (oven dried) [1]: Pattern #6a
Observations (t = 0 @ T = 20° C.) [1]: suspension

COc1ccc2c3c([nH]c2c1)CCN(C)CC3.O=C(O)/C=C/C(=O)O [Sample 11-O]
XRPD (oven dried) [1]: Pattern #6a
Observations (t = 0 @ T = 20° C.) [1]: suspension

COc1ccc2c3c([nH]c2c1)CCN(C)CC3.O=C(O)/C=C/C(=O)O [Sample 11-F]
XRPD (oven dried) [1]: Pattern #6a
Observations (t = 0 @ T = 20° C.) [1]: suspension

COc1ccc2c3c([nH]c2c1)CCN(C)CC3.O=C(O)/C=C/C(=O)O [Sample 11-P]
XRPD (oven dried) [1]: Pattern #5
Observations (t = 0 @ T = 20° C.) [1]: suspension

C/C=C/C=C/C(=O)O.COc1ccc2c3c([nH]c2c1)CCN(C)CC3 [Experiment 6-Sample E1]
Endset [2, 6]: 151.6 °C
melt enthalpy [2, 6]: −105.7 Jg^−1
melt onset [2, 6]: 145.0 °C
peak [2, 6]: 148.8 °C
melt enthalpy [2, 7]: −105.68 Jg-1
melt onset [2, 7]: 145.00 °C
Endset [2, 8]: 151.59 °C
peak [2, 9]: 148.83 °C

COc1ccc2c3c([nH]c2c1)CCN(C)CC3.O=C(O)/C=C/C(=O)O [Sample 11-A]
XRPD (oven dried) [1]: Pattern #6a
Observations (t = 0 @ T = 20° C.) [1]: suspension

COc1ccc2c3c([nH]c2c1)CCN(C)CC3 [Tabernanthalog (native), 8-Methoxy-3-methyl-2,4,5,6-tetrahydro-1H-azepino[4,5-b]indole]
Solid on cooling ([3]; 2-Methyl THF, 5 vol): Yes
Solution at reflux ([3]; 2-Methyl THF, 5 vol): ✓
Solid on cooling ([3]; 2-Propanol, 5 vol): Yes
Solution at reflux ([3]; 2-Propanol, 5 vol): ✓
solubility in common solvents at 20° C. ([3]; 19 common solvents): freely soluble in most common solvents investigated at 20° C., apart from tBME, heptane and water
solubility in common solvents at reflux ([3]; 19 common solvents, various volumes): soluble in 16 solvents at reflux
Solid on cooling ([3]; Acetone, 5 vol): Yes
Solution at reflux ([3]; Acetone, 5 vol): ✓
Solid on cooling ([3]; Acetonitrile, 10 vol): Yes
Solution at reflux ([3]; Acetonitrile, 10 vol): ✓
Solid on cooling ([3]; Chlorobenzene, 5 vol): Yes
Solution at reflux ([3]; Chlorobenzene, 5 vol): ✓
Solid on cooling ([3]; Dichloromethane, 5 vol): Yes
Solution at reflux ([3]; Dichloromethane, 5 vol): ✓
Solid on cooling ([3]; Ethanol, 5 vol): Yes
Solution at reflux ([3]; Ethanol, 5 vol): ✓
Solid on cooling ([3]; Ethyl acetate, 10 vol): Yes
Solution at reflux ([3]; Ethyl acetate, 10 vol): ✓
Solid on cooling ([3]; Ethyl formate, 10 vol): Yes
Solution at reflux ([3]; Ethyl formate, 10 vol): ✓
Solid on cooling ([3]; Isopropyl acetate, 15 vol): Yes
Solution at reflux ([3]; Isopropyl acetate, 15 vol): ✓
Solid on cooling ([3]; Methanol, 5 vol): Yes
Solution at reflux ([3]; Methanol, 5 vol): ✓
Solid on cooling ([3]; Methyl acetate, 10 vol): Yes
Solution at reflux ([3]; Methyl acetate, 10 vol): ✓
Solid on cooling ([3]; Methylethyl ketone, 5 vol): Yes
Solution at reflux ([3]; Methylethyl ketone, 5 vol): ✓
Solid on cooling ([3]; Nitromethane, 5 vol): Yes
Solution at reflux ([3]; Nitromethane, 5 vol): ✓
Solid on cooling ([3]; Tetrahydrofuran, 5 vol): Yes
Solution at reflux ([3]; Tetrahydrofuran, 5 vol): ✓
Solid on cooling ([3]; Toluene, 15 vol): Yes
Solution at reflux ([3]; Toluene, 15 vol): ✓

C/C=C/C=C/C(=O)O.COc1ccc2c3c([nH]c2c1)CCN(C)CC3 [Experiment 6-Sample C1]
Endset [2, 6]: 151.0 °C
melt enthalpy [2, 6]: −100.5 Jg^−1
melt onset [2, 6]: 144.7 °C
peak [2, 6]: 148.8 °C
melt enthalpy [2, 7]: −100.48 Jg-1
melt onset [2, 7]: 144.66 °C
Endset [2, 8]: 151.02 °C
peak [2, 9]: 148.83 °C

COc1ccc2c3c([nH]c2c1)CCN(C)CC3.O=C(O)/C=C/C(=O)O [Sample 11-L]
XRPD (oven dried) [1]: Pattern #6a
Observations (t = 0 @ T = 20° C.) [1]: solution

COc1ccc2c3c([nH]c2c1)CCN(C)CC3.O=C(O)/C=C/C(=O)O [Sample 11-Q]
XRPD (oven dried) [1]: Pattern #5
Observations (t = 0 @ T = 20° C.) [1]: solution

C/C=C/C=C/C(=O)O.COc1ccc2c3c([nH]c2c1)CCN(C)CC3 [Experiment 7-Sample A neat]
Endset [2, 6]: 148.5 °C
melt enthalpy [2, 6]: −122.5 Jg^−1
melt onset [2, 6]: 144.4 °C
peak [2, 6]: 146.8 °C
melt enthalpy [2, 7]: −122.47 Jg-1
melt onset [2, 7]: 144.39 °C
Endset [2, 8]: 148.53 °C
peak [2, 9]: 146.83 °C

CC=CC=CC(=O)O.COc1ccc2c3c([nH]c2c1)CCN(C)CC3 [Experiment 5-Sample H]
Observations (t = 1 @ T = 20° C.) [4]: Partial
XRPD (oven dried @ 40° C., 20 h) [4]: Form A
XRPD (centrifuged, wet) [4]: Form A

CC=CC=CC(=O)O.COc1ccc2c3c([nH]c2c1)CCN(C)CC3 [Experiment 5-Sample B]
Observations (t = 1 @ T = 20° C.) [4]: Solid
XRPD (oven dried @ 40° C., 20 h) [4]: Form A
XRPD (centrifuged, wet) [4]: Form A

C/C=C/C=C/C(=O)O.COc1ccc2c3c([nH]c2c1)CCN(C)CC3 [Experiment 5-Sample Q]
Observations (t = 1 @ T = 20° C.) [4]: Solid
XRPD (oven dried @ 40° C., 20 h) [4]: Form A
XRPD (centrifuged, wet) [4]: Pattern #1

C/C=C/C=C/C(=O)O.COc1ccc2c3c([nH]c2c1)CCN(C)CC3 [Experiment 6-Sample D1]
Endset [2, 6]: 150.2 °C
melt enthalpy [2, 6]: −105.7 Jg^−1
melt onset [2, 6]: 144.0 °C
peak [2, 6]: 148.0 °C
melt enthalpy [2, 7]: −166.35 Jg-1
melt onset [2, 7]: 144.03 °C
Endset [2, 8]: 150.17 °C
peak [2, 9]: 148.00 °C

C/C=C/C=C/C(=O)O.COc1ccc2c3c([nH]c2c1)CCN(C)CC3 [Pattern A1270-20-V2]
Endset [2, 6]: 152.0 °C
melt enthalpy [2, 6]: −84.1 Jg^−1
melt onset [2, 6]: 143.9 °C
peak [2, 6]: 148.8 °C
melt enthalpy [2, 7]: −84.09 Jg-1
melt onset [2, 7]: 143.89 °C
Endset [2, 8]: 151.95 °C
peak [2, 9]: 148.83 °C

COc1ccc2c3c([nH]c2c1)CCN(C)CC3 [fumarate]
DVS 0 to 90 to 0% RH (dm/dt <0.002%) ([5]; desorption, 5.0% RH): 0.1179%
DVS 0 to 90 to 0% RH (dm/dt <0.002%) ([5]; desorption, 10.0% RH): 0.1551%
DVS 0 to 90 to 0% RH (dm/dt <0.002%) ([5]; desorption, 15.0% RH): 0.1857%
DVS 0 to 90 to 0% RH (dm/dt <0.002%) ([5]; desorption, 20.0% RH): 0.2126%
DVS 0 to 90 to 0% RH (dm/dt <0.002%) ([5]; desorption, 25.0% RH): 0.2387%
DVS 0 to 90 to 0% RH (dm/dt <0.002%) ([5]; desorption, 30.0% RH): 0.2656%
DVS 0 to 90 to 0% RH (dm/dt <0.002%) ([5]; desorption, 40.0% RH): 0.3210%
DVS 0 to 90 to 0% RH (dm/dt <0.002%) ([5]; desorption, 50.0% RH): 0.3797%
DVS 0 to 90 to 0% RH (dm/dt <0.002%) ([5]; desorption, 60.0% RH): 0.4515%
DVS 0 to 90 to 0% RH (dm/dt <0.002%) ([5]; desorption, 70.0% RH): 0.5442%
DVS 0 to 90 to 0% RH (dm/dt <0.002%) ([5]; desorption, 80.0% RH): 0.6827%
DVS 0 to 90 to 0% RH (dm/dt <0.002%) ([5]; desorption, 90.0% RH): 0.9766%
DVS 0 to 90 to 0% RH (dm/dt <0.002%) ([5]; sorption, 0.0% RH): DVS 0 to 90 to 0% RH (dm/dt <0.002%): 0.0 (0.0004%), 5.0
DVS 0 to 90 to 0% RH (dm/dt <0.002%) ([5]; sorption, 5.0% RH): 0.0627%
DVS 0 to 90 to 0% RH (dm/dt <0.002%) ([5]; sorption, 10.0% RH): 0.0957%
DVS 0 to 90 to 0% RH (dm/dt <0.002%) ([5]; sorption, 15.0% RH): 0.1397%
DVS 0 to 90 to 0% RH (dm/dt <0.002%) ([5]; sorption, 20.0% RH): 0.1778%
DVS 0 to 90 to 0% RH (dm/dt <0.002%) ([5]; sorption, 25.0% RH): 0.2093%
DVS 0 to 90 to 0% RH (dm/dt <0.002%) ([5]; sorption, 30.0% RH): 0.2401%
DVS 0 to 90 to 0% RH (dm/dt <0.002%) ([5]; sorption, 40.0% RH): 0.3145%
DVS 0 to 90 to 0% RH (dm/dt <0.002%) ([5]; sorption, 50.0% RH): 0.4051%
DVS 0 to 90 to 0% RH (dm/dt <0.002%) ([5]; sorption, 70.0% RH): 0.5451%
DVS 0 to 90 to 0% RH (dm/dt <0.002%) ([5]; sorption, 80.0% RH): 0.6660%
DVS 0 to 90 to 0% RH (dm/dt <0.002%) ([5]; sorption, 90.0% RH): 0.9766%
